From patent US10093675B2, “6,8-disubstituted-9-(heterocyclyl)purines, compositions containing these derivatives and their use in cosmetic and medicinal applications” (USTAV EXPERIMENTALNI BOTANIKY AV CR, V.V.I., priority 2014, dated 2018)
Like-named read-outs stand apart in the source and are kept apart here.

How the values were obtained:
[1] = tested on: cytokinin-dependent tobacco callus Nicotiana tabacum L. cv. Wisconsin 38; experiment: Plant cell division: growth of cytokinin-dependent tobacco callus; type: cell-based; conditions: for Activity (%); (s.d.): relative activity at concentration with highest activity, 10^−6 M kinetin set at 100%; for Concentration with highest activity (mol/l): tobacco callus fresh weight increase after four weeks, tested 10^−8 M to 10^−4 M
[2] = tested on: normal diploid fibroblasts BJ; experiment: In vitro cytotoxic activity (Calcein AM), BJ; type: cell-based, human; conditions: 72 hours, read-out: Cell line tested/IC50 (μmol/L) BJ
How it was run: (§1)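 Calcein fluorescence, read 1 hour after adding Calcein AM at 1 μg/ml final, measured viability following 72 hours of compound treatment at 37° C. Compounds were tested as six 3-fold dilutions from usually 100 μM in triplicate. GI50 was the concentration reducing conversion by 50%.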

[3] = tested on: excised wheat leaf tips (Triticum aestivum cv. Hereward); experiment: Senescence inhibition on winter wheat leaf segments (retention of chlorophyll); type: in vivo; conditions: 10^−4 mol/L; 96 hours in the dark; activity of kinetin set at 100%
How it was run: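 First-leaf tips from 7-day-old wheat seedlings stood with their bases in test solution for 96 h in the dark at 25° C. Chlorophyll was then extracted in hot 80% ethanol and read at 665 nm. Activity at each compound's best concentration is relative to 10^−4 M kinetin (100%), as means of five replicates.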

[4] = tested on: osteosarcoma cell line HOS; experiment: In vitro cytotoxic activity (Calcein AM), HOS; type: cell-based, human; conditions: 72 hours, read-out: Cell line tested/IC50 (μmol/L) HOS
How it was run: as §1

melanoma cell line G-361 = experiment: In vitro cytotoxic activity (Calcein AM), G-361; type: cell-based, human; conditions: read-out: Cell line tested/IC50 (μmol/L) G-361
How it was run: as §1

[5] = tested on: breast carcinoma cell line MCF-7; experiment: In vitro cytotoxic activity (Calcein AM), MCF-7; type: cell-based, human; conditions: read-out: Cell line tested/IC50 (μmol/L) MCF7
How it was run: as §1

[6] = tested on: T-lymphoblastic leukemia cell line CEM; experiment: In vitro cytotoxic activity (Calcein AM), CEM; type: cell-based, human; conditions: 72 hours, read-out: Cell line tested/IC50 (μmol/L) CEM
How it was run: as §1

[7] = tested on: detached leaves of Triticum aestivum cv. Hereward; experiment: Membrane lipid peroxidation (MDA, TBA method) in detached wheat leaves during dark senescence; type: in vivo; conditions: four days in the dark, Control 18.9 (±2.2)
Method: A typical symptom associated with senescence as a direct consequence of increased reactive oxygen species is lipid peroxidation. Therefore the levels of MDA, a decomposition product of lipid peroxidation, were measured in detached wheat leaves that were exposed to the prepared novel derivatives and kinetin for four days in the dark as described in Example 8. MDA levels were measured using a thiobarbituric acid (TBA) method. In detail, 100 mg of fresh plant material was homogenized by high speed shaking in a ball mill (MM301, Retsch, Germany) with 1 mL of 80% methanol. The crude extract was centrifuged at 10,000×g for 5 min, and 100 μL aliquot of supernatant was vortexed with 100 μL of 0.5% (w/v) TBA containing 0.1% (w/v) trichloroacetic acid, and the resulting solution was then incubated for 30 min at 95° C. The samples were quickly cooled on ice and recentrifuged for 5 min at 1000×g. The absorbance of supernatant was measured at 532 nm with background subtraction at 600 nm and the amount of MDA-TBA complex was calculated from the coefficient of absorbance 155 mM^−1cm^−1.
Seeds of winter wheat, Triticum aestivum cv. Hereward, were washed under running water for 24 hours and then sown on vermiculite soaked with Knop's solution. They were placed in the grown chamber at 25° C. with a 16/8 hours light period at […]. After 7 days, the first leaf was fully developed and the second leaf had started to grow. A tip section of the first leaf, approximately 35 mm long, was removed from 5 seedlings and trimmed slightly to a combined weight of 100 mg. The basal ends of the five leaf tips were placed in the wells of a microtiter polystyrene plate containing […] of a cytokinin solution each. The entire plate was inserted into a plastic box lined with paper tissues soaked in distilled water to prevent leaf sections from drying out. After 96 hours incubation in the dark at 25° C., the leaves were removed and chlorophyll extracted by heating at 80 C for 10 min in 5 ml of 80% ethanol (v/v). The sample volume was then restored to 5 ml by the addition of 80% ethanol (v/v). The absorbance of the extract was recorded at 665 nm. In addition, chlorophyll extracts from fresh leaves and leaf tips incubated in deionized water were measured. From the obtained data, the concentration with highest activity was selected for each compound tested. Relative activity of the compound at this concentration was calculated (see Table 6 below). The activity obtained for 10^−4 M kinetin (Kin) was set as 100%. The values shown are means of five replicates and the whole experiment was repeated twice.

[8] = tested on: erytroid leukemia cell line K-562; experiment: In vitro cytotoxic activity (Calcein AM), K-562; type: cell-based, human; conditions: read-out: Cell line tested/IC50 (μmol/L) K-562
How it was run: as §1

[9] = tested on: Human diploid fibroblast BJ; experiment: In vitro cytotoxic activity (MTT); type: cell-based; conditions: 72 hours incubation; concentration causing 20% decrease in mitochondrial dehydrogenase activity
[10] = Radical scavenging activity determined by ORAC (Oxygen Radical Absorbance Capacity); type: biochemical; conditions: Mean ± SD (n = 3); net area under the curve relative to trolox, equimolar basis
Method: The ability of compounds to scavenge free radicals in vitro was determined by Oxygen Radical Absorbance Capacity (ORAC) method. Fluorescein (100 μL, […]) and 25 μL of compound solution were added into each working well in a 96-well microplate preincubated at 37° C. Thereafter, 25 μL of 250 mM AAPH was quickly added, microplate was shaken for 5 s and the fluorescence (Ex. 485 nm, Em. 510 nm) was read every 3 min over 90 min by using microplate reader Infinite 200 (TECAN, Switzerland). The net area under the curve was used to express antioxidant activity relative to trolox which was used as a standard.

[11] = tested on: human diploid fibroblasts (HDF cells; HDF25, HDF45, HDF80); experiment: Inhibition of human cell aging: senescent cells by beta-galactosidase staining; type: cell-based
How it was run: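 Cells of passages 25, 45 and 80 fixed 5 min at room temperature in 2% formaldehyde/0.2% glutaraldehyde in PBS, then incubated at 37° C with beta-galactosidase substrate. Senescent cells identified by blue staining.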

## C/C(=C\CNc1ncnc2c1nc(Cl)n2C1CCCCO1)CO (stereo not shown) [Compound 5, (E)-8-Chloro-6-(4-hydroxy-3-methylbut-2-en-1-ylamino)-9-(tetrahydropyran-2-yl)-9H-purine]
[1]
  Activity (%); (s.d.): 124 (±6) %
[2]; Homo sapiens, Fibroblast
  IC50: > 50 µmol/L
[3]
  Activity (%) (s.d.), retention of chlorophyll: 118 (±5) %
[4]; Homo sapiens
  IC50: > 50 µmol/L
Melanoma cell line G-361; Homo sapiens, G-361, 72 hours
  IC50: > 50 µmol/L
[5]; Homo sapiens, MCF7, 72 hours
  IC50: > 50 µmol/L
[6]; Homo sapiens
  IC50: > 50 µmol/L
[7]
  MDA (nmol/g FW): 13.2 (±1.5) nmol/g FW
[8]; Homo sapiens, K562, 72 hours
  IC50: > 50 µmol/L
[9]
  GI20: >100 µM

## Oc1cccc(CNc2ncnc3c2nc(Cl)n3C2CCCCO2)c1 (stereo not shown) [Compound 9]
[1]
  Activity (%); (s.d.): 108 (±3) %
  Concentration with highest activity (mol/l): 10^−6-10^−4 mol/l
[2]
  IC50: > 50 µmol/L
[3]
  Activity (%) (s.d.), retention of chlorophyll: 115 (±4) %
[4]
  IC50: > 50 µmol/L
Melanoma cell line G-361; 72 hours
  IC50: > 50 µmol/L
[5]; 72 hours
  IC50: > 50 µmol/L
[6]
  IC50: > 50 µmol/L
[7]
  MDA (nmol/g FW): 12.4 (±1.3) nmol/g FW
[8]; 72 hours
  IC50: > 50 µmol/L
[9]
  GI20: >100 µM

## Oc1cccc(CNc2ncnc3c2nc(Br)n3C2CCCCO2)c1 (stereo not shown) [Compound 29]
[1]
  Activity (%); (s.d.): 112 (±3) %
  Concentration with highest activity (mol/l): 10^−6-10^−4 mol/l
[2]
  IC50: > 50 µmol/L
[3]
  Activity (%) (s.d.), retention of chlorophyll: 117 (±2) %
[4]
  IC50: > 50 µmol/L
Melanoma cell line G-361; 72 hours
  IC50: > 50 µmol/L
[5]; 72 hours
  IC50: > 50 µmol/L
[6]
  IC50: > 50 µmol/L
[7]
  MDA (nmol/g FW): 12.3 (±1.4) nmol/g FW
[8]; 72 hours
  IC50: > 50 µmol/L
[9]
  GI20: >100 µM

## Ic1nc2c(NCc3ccccc3)ncnc2n1C1CCCCO1 (stereo not shown) [Compound 46, 8-Iodo-6-benzylamino-9-(tetrahydropyran-2-yl)-9H-purine]
[10]
  ORAC (compound/trolox ratio): 1.4 ± 0.0
[7]
  MDA (nmol/g FW): 10.9 (±1.0) nmol/g FW

## CN(C)c1nc2c(NCc3ccco3)ncnc2n1C1CCCCO1 (stereo not shown) [Compound 80, 6-Furfurylamino-8-dimethylamino-9-(tetrahydropyran-2-yl)-9H-purine]
[10]
  ORAC (compound/trolox ratio): 2.2 ± 0.1
[7]
  MDA (nmol/g FW): 11.3 (±0.9) nmol/g FW

## C=CCNc1nc2c(NCc3ccco3)ncnc2n1C1CCCCO1 (stereo not shown) [Compound 100, 8-Allylamino-6-furfurylamino-9-(tetrahydropyran-2-yl)-9H-purine]
[10]
  ORAC (compound/trolox ratio): 32.4 ± 3.2
[7]
  MDA (nmol/g FW): 10.2 (±1.1) nmol/g FW

## Nc1nc2c(NCc3ccco3)ncnc2n1C1CCCCO1 (stereo not shown) [Compound 102, 6-furfurylamino-8-amino-9-(tetrahydropyran-2-yl)-9H-purine]
[10]
  ORAC (compound/trolox ratio): 4.5 ± 0.1
[7]
  MDA (nmol/g FW): 10.4 (±0.9) nmol/g FW

## CC(C)=CCNc1nc(Cl)nc2c1nc(N)n2C1CCCCO1 (stereo not shown) [Compound 107, 8-Amino-6-(3-methylbut-2-en-1-ylamino)-chloro-9-(tetrahydropyran-2-yl)-9H-purine]
[10]
  ORAC (compound/trolox ratio): 24.4 ± 1.5
[7]
  MDA (nmol/g FW): 10.5 (±0.5) nmol/g FW

## NCCNc1nc2c(NCc3ccco3)ncnc2n1C1CCCCO1 (stereo not shown) [Compound 170, 8-(2-Aminoethylamino)-6-furfurylamino-9-(tetrahydropyran-2-yl)-9H-purine]
[10]
  ORAC (compound/trolox ratio): 181.3 ± 5.2
[7]
  MDA (nmol/g FW): 10.4 (±0.7) nmol/g FW

## CC(C)=CCNc1ncnc2c1nc(NCCN)n2C1CCCCO1 (stereo not shown) [Compound 172, 8-(2-Aminoethylamino)-6-(3-methylbut-2-en-1-ylamino)-9-(tetrahydropyran-2-yl)-9H-purine]
[10]
  ORAC (compound/trolox ratio): 28.3 ± 1.6
[7]
  MDA (nmol/g FW): 10.8 (±0.9) nmol/g FW

## OCCNc1nc2c(NCc3ccco3)ncnc2n1C1CCCCO1 (stereo not shown) [Compound 181, 6-Furfurylamino-8-(2-hydroxyethylamino)-9-(tetrahydropyran-2-yl)-9H-purine]
[10]
  ORAC (compound/trolox ratio): 78.1 ± 3.9
[7]
  MDA (nmol/g FW): 9.5 (±0.5) nmol/g FW

## OCCCNc1nc2c(NCc3ccco3)ncnc2n1C1CCCCO1 (stereo not shown) [Compound 185, 6-Furfurylamino-8-(3-hydroxypropylamino)-9-(tetrahydropyran-2-yl)-9H-purine]
[10]
  ORAC (compound/trolox ratio): 48.3 ± 2.3
[7]
  MDA (nmol/g FW): 10.2 (±1.1) nmol/g FW

## COc1nc2c(NCc3ccco3)ncnc2n1C1CCCO1 (stereo not shown) [Compound 206]
[1]
  Activity (%); (s.d.): 110 (±3) %
  Concentration with highest activity (mol/l): 10^−6-10^−4 mol/l
[2]
  IC50: > 50 µmol/L
[4]
  IC50: > 50 µmol/L
Melanoma cell line G-361; 72 hours
  IC50: > 50 µmol/L
[5]; 72 hours
  IC50: > 50 µmol/L
[6]
  IC50: > 50 µmol/L
[7]
  MDA (nmol/g FW): 10.5 (±0.4) nmol/g FW
[8]; 72 hours
  IC50: > 50 µmol/L
[9]
  GI20: >100 µM

## c1coc(CNc2ncnc3c2ncn3C2CCCCO2)c1 (stereo not shown) [KTHP, kinetin-9-tetrahydropyranyl, reference compound]
[10]
  ORAC (compound/trolox ratio): 0.6 ± 0.1
[11]; human diploid fibroblasts passage 25, beta-galactosidase staining
  SENESCENT CELLS (%) HDF25: 3%
[11]; human diploid fibroblasts passage 45, beta-galactosidase staining
  SENESCENT CELLS (%) HDF45: 4%
[11]; human diploid fibroblasts passage 80, beta-galactosidase staining
  SENESCENT CELLS (%) HDF80: 26%
